This passage reports speed of sound and mass density results from the NIST ThermoML archive (doi:10.1021/je900909s).

This data set is described as follows: cn = amount concentration of the nth substance listed, in mol/dm3. Conditions: 101 kPa, Liquid, c1 = 2; for speed of sound: Frequency=4 MHz, Linear variable-path acoustic interferometer.

“And” between values parts separate entries of the source, which are not always exact repeats. Identical values can stand only once. ± gives the expanded uncertainty stated by the source.

In general, speed of sound refers to how fast a sound wave travels through the sample. As usually defined, the mass density is the mass of a sample divided by its volume. For `[Cl-].[Na+]` [sodium chloride] + O, the speed of sound runs as follows: (298.15 K) 1614.3 ± 2.1 m/s; (303.15 K) 1620.9 ± 2.1 m/s; (308.15 K) 1627.6 ± 2.1 m/s; (313.15 K) 1633.7 ± 2.1 m/s; (318.15 K) 1637.3 ± 2.1 m/s; (323.15 K) 1640.5 ± 2.2 m/s. In addition, the speed of sound (328.15 K) is 1643.7 ± 2.2 m/s and 1642.7 ± 2.2 m/s. Besides, the mass density is reported as 1075 ± 1.4 kg/m3 (298.15 K); 1073 ± 1.5 kg/m3 (303.15 K); 1070.7 ± 1.5 kg/m3 (308.15 K); 1068.3 ± 1.6 kg/m3 (313.15 K); 1065.7 ± 1.7 kg/m3 (318.15 K); 1063.1 ± 1.7 kg/m3 (323.15 K). Moreover, the mass density (328.15 K) stood at 1060.2 ± 1.8 kg/m3.
Consider `O=[N+]([O-])[O-].[Na+]` [sodium nitrate] + O, for which the speed of sound by setting is: (298.15 K) 1581.4 ± 2.1 m/s; (303.15 K) 1588.6 ± 2.1 m/s; (308.15 K) 1593.2 ± 2.1 m/s; (313.15 K) 1596.3 ± 2.1 m/s; (318.15 K) 1600.1 ± 2.1 m/s; (323.15 K) 1604.3 ± 2.1 m/s. Besides, the speed of sound (328.15 K) was 1607.1 ± 2.1 m/s. For the same molecule, the mass density is, setting by setting: (298.15 K) 1104.2 ± 1.5 kg/m3; (303.15 K) 1101.7 ± 1.5 kg/m3; (308.15 K) 1099 ± 1.6 kg/m3; (313.15 K) 1096.3 ± 1.7 kg/m3; (318.15 K) 1093.4 ± 1.7 kg/m3; (323.15 K) 1090.4 ± 1.8 kg/m3. The mass density (328.15 K) stood at 1087.2 ± 1.8 kg/m3.
